Reference: paper PMC10761696, “Avapritinib-based SAR studies unveil a binding pocket in KIT and PDGFRA” (Nature Communications, 2024)
Values joined by “and” are separate entries in the source; they are usually repeats but may differ in a detail not shown here. Identical values can stand only once. Like-named read-outs stand apart in the source and are kept apart here.

Tests used:
[1] = system: ZR-75-1; assay: CellTiter-Glo (CTG) EC50, ZR-75-1 breast cancer control cell line; assay type: cell-based, human; settings: Homo sapiens
Method: (§1) Cell line authenticity was confirmed by STR analysis at Eurofins Genomics. All cell lines were tested regularly for mycoplasma contamination using the Mycoplasmacheck Service at Eurofins Genomics. […] Following incubation for 24 h in a humidified atmosphere at 37 °C and 5% CO2, cells were treated with inhibitors in serial dilutions ranging from 30 µM down to 0.1 nM using an Echo650 acoustic liquid handler (Beckman Coulter). Cell viability was analyzed on day 5 using the CellTiter-Glo® assay (Promega) using 500 ms integration time. The obtained data were normalized to the plate positive control (30 µM staurosporine) and negative control (DMSO) and subsequently analyzed and fitted with the Quattro Software Suite (Quattro Research) using a four-parameter logistic model. As quality control, the Z’-factor was calculated from 16 positive and negative control values. Only assay results showing a Z’-factor ≥0.5 were used for further analysis. All experimental points were measured in duplicates for each plate and were independently replicated in at least three plates.

[2] = molecular target: T1, PDGFRA-D842V (Homo sapiens, UniProt P16234, D842V); assay: Activity-based HTRF KinEASE assay, PDGFRA-D842V; assay type: biochemical
T1 construct: purchased Invitrogen PV4203 (lot #2343231B)
T1 sequence (P16234 24-1089 D842V): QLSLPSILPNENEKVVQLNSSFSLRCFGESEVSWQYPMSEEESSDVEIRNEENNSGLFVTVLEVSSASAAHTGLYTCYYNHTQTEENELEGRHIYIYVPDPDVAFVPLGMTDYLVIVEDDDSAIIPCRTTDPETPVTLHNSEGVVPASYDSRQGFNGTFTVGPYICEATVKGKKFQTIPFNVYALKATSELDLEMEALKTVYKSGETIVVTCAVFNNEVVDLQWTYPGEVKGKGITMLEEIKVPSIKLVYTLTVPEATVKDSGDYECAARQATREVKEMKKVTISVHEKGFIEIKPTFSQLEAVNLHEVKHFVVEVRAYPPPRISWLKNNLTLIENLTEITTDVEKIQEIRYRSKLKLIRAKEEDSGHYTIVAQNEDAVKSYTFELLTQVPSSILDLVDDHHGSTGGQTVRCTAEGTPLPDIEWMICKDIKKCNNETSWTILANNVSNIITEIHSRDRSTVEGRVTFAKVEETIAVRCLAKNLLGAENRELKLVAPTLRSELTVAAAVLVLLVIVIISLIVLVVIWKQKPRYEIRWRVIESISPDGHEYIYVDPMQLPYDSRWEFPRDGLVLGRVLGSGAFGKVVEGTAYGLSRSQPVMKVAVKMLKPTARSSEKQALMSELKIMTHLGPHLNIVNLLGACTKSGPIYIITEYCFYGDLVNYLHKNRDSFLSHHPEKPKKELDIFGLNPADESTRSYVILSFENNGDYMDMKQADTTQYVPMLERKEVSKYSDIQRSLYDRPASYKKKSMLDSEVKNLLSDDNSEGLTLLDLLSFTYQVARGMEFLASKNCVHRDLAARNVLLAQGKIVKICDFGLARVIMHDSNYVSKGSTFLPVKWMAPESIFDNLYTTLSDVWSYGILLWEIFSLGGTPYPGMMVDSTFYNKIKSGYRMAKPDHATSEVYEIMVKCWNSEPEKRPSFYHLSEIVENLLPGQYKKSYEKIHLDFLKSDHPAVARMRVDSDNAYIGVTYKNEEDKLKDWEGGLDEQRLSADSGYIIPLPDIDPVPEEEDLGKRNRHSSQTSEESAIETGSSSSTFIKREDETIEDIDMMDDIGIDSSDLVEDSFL

[3] = system: T1-T670I; assay: CellTiter-Glo (CTG) GR50, T1-T670I; settings: Homo sapiens
[4] = system: SK-LMS-1; assay: CellTiter-Glo (CTG) GR50, SK-LMS-1 control cell line; settings: for CTG GR50 SK-LMS-1, single determinations: raw data of Supp. Tab. 2, independent experiments, unit from Supp. Tab. 2; for CTG GR50 SK-LMS-1: mean ± s.d., n = 3, control cell line
[5] = system: T1-a-5258; assay: CellTiter-Glo (CTG) GR50, T1-a-5258; settings: Homo sapiens
[6] = molecular target: KIT-D816H (Homo sapiens, UniProt P10721, D816H); assay: Activity-based HTRF KinEASE assay, KIT-D816H; assay type: biochemical
KIT-D816H, sequence (P10721 26-976 D816H): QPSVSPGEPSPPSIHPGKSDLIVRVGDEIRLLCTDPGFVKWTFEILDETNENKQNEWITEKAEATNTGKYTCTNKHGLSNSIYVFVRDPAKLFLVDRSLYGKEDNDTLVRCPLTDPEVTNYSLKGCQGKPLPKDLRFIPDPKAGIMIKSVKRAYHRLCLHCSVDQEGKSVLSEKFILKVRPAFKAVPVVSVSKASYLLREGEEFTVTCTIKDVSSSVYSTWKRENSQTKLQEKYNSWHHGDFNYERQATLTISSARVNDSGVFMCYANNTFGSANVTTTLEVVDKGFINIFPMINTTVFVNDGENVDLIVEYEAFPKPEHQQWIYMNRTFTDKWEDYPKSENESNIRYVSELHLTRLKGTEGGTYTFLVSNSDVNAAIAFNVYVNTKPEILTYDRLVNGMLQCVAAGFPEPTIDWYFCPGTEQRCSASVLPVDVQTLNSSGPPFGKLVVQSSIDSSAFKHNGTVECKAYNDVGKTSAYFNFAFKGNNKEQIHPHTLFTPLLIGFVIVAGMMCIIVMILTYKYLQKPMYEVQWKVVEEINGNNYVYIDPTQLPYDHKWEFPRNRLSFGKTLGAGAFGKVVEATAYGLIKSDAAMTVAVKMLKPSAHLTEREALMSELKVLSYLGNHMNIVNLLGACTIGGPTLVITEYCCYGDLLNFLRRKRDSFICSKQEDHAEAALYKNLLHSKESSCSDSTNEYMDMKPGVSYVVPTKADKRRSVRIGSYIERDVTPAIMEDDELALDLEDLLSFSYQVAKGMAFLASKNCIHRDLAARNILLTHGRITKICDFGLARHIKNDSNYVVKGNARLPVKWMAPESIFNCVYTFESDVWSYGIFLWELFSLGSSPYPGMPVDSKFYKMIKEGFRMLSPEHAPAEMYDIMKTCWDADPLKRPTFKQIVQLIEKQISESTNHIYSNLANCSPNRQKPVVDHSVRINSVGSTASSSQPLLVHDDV

[7] = system: GIST-48B; assay: CellTiter-Glo (CTG) GR50, GIST-48B control cell line (off-target toxicity); settings: ratio of GR50 values; for GIST-48B/D842V: source data sheet
[8] = system: T1-a-D842V; assay: CellTiter-Glo (CTG) GR50, T1-a-D842V; settings: comparator not clearly stated
[9] = system: T1-V654A; assay: CellTiter-Glo (CTG) GR50, T1-V654A; settings: Homo sapiens
[10] = system: MDA-MB-175VII; assay: CellTiter-Glo (CTG) EC50, MDA-MB-175VII breast cancer control cell line; assay type: cell-based, human; settings: Homo sapiens, MDA-MB-175-VII
Method: as §1

[11] = system: GIST-T1; assay: CellTiter-Glo (CTG) GR50, GIST-T1; settings: for GI50: Homo sapiens
[12] = MDCKII-MDR1 permeability assay; settings: dog; for Papp B→A at 2 h, 10 µM: MDCK-MDR1
[13] = system: MDR1; assay: MDCKII-MDR1 permeability assay; settings: dog; for efflux ratio at 2 h, 10 µM: MDCK-MDR1; for recovery at 2 h, 10 µM: MDCKII-MDR1, assay conc. 10
[14] = system: MDCKII-MDR1 cells; assay: MDCKII-MDR1 permeability assay; settings: for permeability class of reference compound (Comment): reference compounds of the MDCKII-MDR1 assay
[15] = ZR-75-1, mean ± s.d., n = 3, control cell line, read-out: CTG EC50 ZR-75-1
[16] = ZR-75-1, raw data of Supp. Tab. 2, independent experiments, unit from Supp. Tab. 2, read-out: CTG EC50 ZR-75-1, single determinations
[17] = mean ± s.d., n ≥ 3, ATP at KM (14 µM), read-out: HTRF IC50 PDGFRA-D842V
[18] = raw data of Table 1, independent experiments 1-3, unit from Table 1, read-out: HTRF IC50 PDGFRA-D842V, single determinations
[19] = read-out: CTG GR50 T1-T670I, single determinations, raw data of Supp. Tab. 1, independent experiments, unit from Supp. Tab. 1
[20] = read-out: KIT CTG GR50 T1-T670I, mean ± s.d., n ≥ 3
[21] = read-out: CTG GR50 T1-a-5258, single determinations, raw data of Supp. Tab. 1, independent experiments, unit from Supp. Tab. 1
[22] = read-out: PDGFRA CTG GR50 T1-a-5258, mean ± s.d., n ≥ 3, triple mutant D842V, G652E, V658A
[23] = mean ± s.d., n ≥ 3, ATP at KM (12 µM), read-out: HTRF IC50 KIT-D816H
[24] = raw data of Table 1, independent experiments, unit from Table 1, read-out: HTRF IC50 KIT-D816H, single determinations
[25] = read-out: CTG GR50 T1-V654A, single determinations, raw data of Supp. Tab. 1, independent experiments, unit from Supp. Tab. 1
[26] = read-out: KIT CTG GR50 T1-V654A, mean ± s.d., n ≥ 3 (* n = 2 for ava)
[27] = read-out: CTG EC50 MDA-MB-175VII, mean ± s.d., n = 3, control cell line
[28] = read-out: CTG EC50 MDA-MB-175VII, single determinations, raw data of Supp. Tab. 2, independent experiments, unit from Supp. Tab. 2
[29] = GISTT1, read-out: CTG GR50 GIST-T1, single determinations, raw data of Table 1, independent experiments, unit from Table 1
[30] = GISTT1, read-out: KIT CTG GR50 GIST-T1, mean ± s.d., n ≥ 3, GR50 half-maximal growth inhibition rate
[31] = MDCK-MDR1, MDCKII-MDR1 (Papp A→B), at 10 µM, 2 h, 37 °C, unit inferred
[32] = MDCK-MDR1, Papp A->B, MDCKII-MDR1, assay conc. 10, apical to basolateral

Row | SMILES | EC50 [1, 15] [µM] | EC50 [1, 16] [µM] | IC50 [2, 17] [µM] | IC50 [2, 18] | GI50 [3, 19] [µM] | GI50 [3, 20] [µM] | CTG GR50 SK-LMS-1, single determinations [4] | GI50 [5, 21] [µM] | GI50 [5, 22] [µM] | IC50 [6, 23] [µM] | IC50 [6, 24] | ratio GIST-48B/ T1-a-D842V [7] | GIST-48B/D842V [7] | GI50 [9, 25] [µM] | GI50 [9, 26] [µM] | EC50 [10, 27] [µM] | EC50 [10, 28] [µM] | GI50 [11, 29] [µM] | GI50 [11, 30] [µM] | Papp B→A at 2 h, 10 µM [12] [×10⁻⁶ cm/s] | further results
1 | Cn1cc(-c2cc3c(N4CCC5(CC4)CN(c4ncc(Cc6ccccc6)cn4)C5)ncnn3c2)cn1 [Compound 7] | ≥ 10 | ≥ 10 | 0.749 ± 0.142 | 0.563 µM and 0.909 µM and 0.773 µM | ≥ 10 | ≥ 10 | ≥10 µM | 9.97 | 9.52 ± 0.81 | 0.204 ± 0.084 | 0.283 µM and 0.116 µM and 0.213 µM | 1 | 1.22 | 6.13 | 6.73 ± 0.439 | ≥ 10 | ≥ 10 | 0.824 | 0.709 ± 0.196 |  | fold decrease in potency, T1-a-D842V [8]: > 500 fold; fold decrease in potency, GIST-T1 ([11]; comparator not clearly stated): ~ 17 fold
2 | CC(=O)N[C@@](C)(c1ccc(F)cc1)c1cnc(N2CCN(c3ncnn4cc(-c5cnn(C)c5)cc34)CC2)nc1 [Compound 10] | ≥ 10 | ≥ 10 | < 0.0001 | < 0.0001 µM | 0.376 | 0.386 ± 0.039 | 6.361 µM and 10 µM | 1.57 | 2.06 ± 0.43 | 0.0005 ± 0.0001 | 0.00038 µM and 0.00043 µM and 0.00065 µM | 186 | 186 | 0.268 | 0.293 ± 0.083 | ≥ 10 | ≥ 10 | 0.044 | 0.039 ± 0.006 | 5.43 | CTG GR50 SK-LMS-1 [4]: 8.787 ± 2.101 µM and 8.787 µM; Papp A→B at 2 h, 10 µM [12, 31]: 11.3 ×10⁻⁶ cm/s; Papp A→B at 2 h, 10 µM [12, 32]: 11.3 ×10⁻⁶ cm/s; efflux ratio at 2 h, 10 µM [13]: 0.48; recovery at 2 h, 10 µM ([13]; MDCK-MDR1, Recovery A->B): 44.1%; recovery at 2 h, 10 µM ([13]; MDCK-MDR1, Recovery B->A): 48.4%
3 | C=CC(=O)N[C@@](C)(c1ccc(F)cc1)c1cnc(N2CCN(c3ncnn4cc(-c5cnn(C)c5)cc34)CC2)nc1 [Compound 11] | ≥ 10 | ≥ 10 | < 0.0001 | < 0.0001 µM | 0.402 | 0.413 ± 0.044 |  | 2.97 | 3.38 ± 0.36 | 0.0005 ± 0.0002 | 0.0007 µM and 0.00054 µM and 0.00037 µM | 144 | 144 | 0.302 | 0.347 ± 0.108 | ≥ 10 | ≥ 10 | 0.046 | 0.039 ± 0.007 | 1.99 | CTG GR50 SK-LMS-1 [4]: 6.459 ± 3.067 µM and 6.459 µM; Papp A→B at 2 h, 10 µM [12, 31]: 10.1 ×10⁻⁶ cm/s; efflux ratio at 2 h, 10 µM [13]: 0.2; recovery at 2 h, 10 µM ([13]; MDCK-MDR1, Recovery A->B): 34.2%; recovery at 2 h, 10 µM ([13]; MDCK-MDR1, Recovery B->A): 38.9%
4 | COC(=O)N[C@@](C)(c1ccc(F)cc1)c1cnc(N2CCN(c3ncnn4cc(-c5cnn(C)c5)cc34)CC2)nc1 [Compound 12] | ≥ 10 | ≥ 10 | 0.0002 ± 0.0001 | 0.0003 µM and 0.0002 µM and 0.0001 µM | 0.62 | 0.695 ± 0.135 | 6.084 µM and 5.919 µM and 10 µM | 2.4 | 2.22 ± 0.35 | 0.0006 ± 0.0004 | 0.0011 µM and 0.0003 µM and 0.00053 µM | 256 | 256 |  | 0.474 ± 0.155 | ≥ 10 | ≥ 10 | 0.071 | 0.06 ± 0.012 | 2.76 | CTG GR50 SK-LMS-1 [4]: 7.334 ± 2.31 µM and 7.334 µM; Papp A→B at 2 h, 10 µM [12, 31]: 12.4 ×10⁻⁶ cm/s; Papp A→B at 2 h, 10 µM [12, 32]: 12.4 ×10⁻⁶ cm/s; efflux ratio at 2 h, 10 µM [13]: 0.22; recovery at 2 h, 10 µM ([13]; MDCK-MDR1, Recovery A->B): 25.4%; recovery at 2 h, 10 µM ([13]; MDCK-MDR1, Recovery B->A): 49.7%
5 | C[C@H]1O[C@@H](O[C@H]2[C@@H](O)C[C@H](O[C@H]3[C@@H](O)C[C@H](O[C@H]4CC[C@@]5(C)[C@H](CC[C@@H]6[C@@H]5C[C@@H](O)[C@]5(C)[C@@H](C7=CC(=O)OC7)CC[C@]65O)C4)O[C@@H]3C)O[C@@H]2C)C[C@H](O)[C@@H]1O [digoxin, reference compound] |  |  |  |  |  |  |  |  |  |  |  |  |  |  |  |  |  |  |  | 15.4 ± 16 | Papp A→B at 2 h, 10 µM ([12]; MDCK-MDR1, MDCKII-MDR1 (PappA→B), reference compounds, mean over routine assay runs): 1.9 ± 4.5 ×10⁻⁶ cm/s; permeability class of reference compound (Comment) [14]: efflux
6 | CC(C)NCC(O)COc1cccc2ccccc12 (stereo not drawn) [propranolol, reference compound] |  |  |  |  |  |  |  |  |  |  |  |  |  |  |  |  |  |  |  |  | permeability class of reference compound (Comment) [14]: highly permeable; permeability class of reference compound (Comment) ([14]; listed as Propanolol): permeable; MDCKII-MDR1 (PappA→B) ([14]; reference compounds, mean over routine assay runs): 32 ± 10.3 10-6 cm/s
